Values of other authors as cited in patent US20060009656A1, “METHOD OF PRODUCING BETAINE COMPOUND” (priority 2004, published 2006).
Counter-ions that a name gives are not always drawn.

Details: as methyl supplier in feed

C[N+](C)(C)CC(=O)O [Betaine anhydrous, 2-(Trimethylammonio) ethanoic acid, hydroxide, inner salt]
effective value of organism relative to 50% choline chloride (relative to 50% choline chloride): 1.8 times
effective value of organism relative to DL-methionine (relative to DL-methionine): 3 times
